Reference: patent publication US20160002297A1, “THERAPEUTIC AGENTS” (NATIONAL UNIVERSITY OF SINGAPORE, priority 2013, published 2016)
Positions of bridges follow the written chain, without caps; N, C: chain ends. Residues, ends and D or L forms follow the SMILES beside them.

Experiments:
endothelial cells (ECs) = assay: Apoptosis assay (Cell Death ELISA) in cultured ECs; assay type: cell-based; details: cultured ECs in the presence of VEGF, 24 h
Procedure: ECs (2×10^4 cells per well) in 96-well plate were starved in 2% FBS basal CSC medium for 3 h. Cells were then incubated with peptides of various concentrations and 15 ng/ml VEGF for 24 h. Apoptosis was detected by measuring cytosolic oligonucleosome-bound DNA using a Cell Death ELISA kit purchased from Roche (USA). Plots represented the mean of 3 wells of apoptotic cells in 96 well plate (±SEM).

HUVECs = assay: Tube formation assay on Matrigel; assay type: cell-based, human
Procedure: HUVECs (1×10^4) were pre-treated with peptides of various concentrations for 30 min before being plated onto the polymerized Matrigel (Millipore, USA) in 15-well μ-slide (Ibidi, Germany). After 4-6 h, capillary network was documented using Zeiss Axiovert200 inverted microscope (Maple Grove, Minn., USA). Tube length was quantified by measuring the length of branches in representative fields using ImageJ software. Plots represented the mean of 3 wells of tubular length in 15-well μ-slide (t SEM).

ECs = assay: Cell attachment (EC adhesion) assay; assay type: cell-based; details: peptide coated on plastic surface
Procedure: 96-well plates were coated with 50 μl of 1 μM ISM at 4° C. overnight. Nonspecific binding sites were blocked with 1% BSA for 2 h at 37° C. ECs were harvested and incubated in CSC basal medium containing 4 μg/ml neutralizing antibodies or control IgG for 30 min. 2[…]104 cells were plated to each well and allowed to attach for 60 min at 37° C. Attached cells were fixed by 10% formalin and stained with 0.2% crystal violet. Absorbed crystal violet was extracted by 10% acetic acid and quantified by measuring the absorbance of eluted dye at 595 nm with a microplate reader.

GRP78 = GRP78 (Homo sapiens, UniProt P11021); assay: ELISA solid phase-binding assay for binding affinity to GRP78; details: purified recombinant GRP78
Procedure: ELISA solid phase-binding assay was used to determine the dissociation constant between ISM or cyclic peptide and GRP78 as previously described with minor modification (Nishiuchi, Takagi et al. 2006). 96-well plates were coated with 50 μl of 10 nM cyclic peptide at 4° C. overnight. Nonspecific binding sites were blocked with 1% BSA for 2 h at room temperature. Increasing concentrations of GRP78 were incubated with immobilized cyclic peptide. After washing, the amount of bound GRP78 was quantified by ELISA. The value for Kd was calculated by GraphPad Prism software.

4T1 breast carcinoma = assay: Subcutaneous 4T1 breast carcinoma growth in mice, intravenous treatment; assay type: in vivo, mouse
Procedure: FIG. 13 cRKD peptide inhibits subcutaneous 4T1 breast carcinoma growth in mice when delivered intravenously. (a) 4T1 tumor growth curve in mice. X-axis represents the days after inoculation of 1 million tumor cells. Groups consisted of mice receiving 250 μg cRAA peptide or cRKD peptide through tail vein injection every other day from day 0 (date of inoculation) to 22. N=10. (b) Tumor weight at the end of the experiment (day 22). (c) Dissected tumors at the end of experiment. […] Paraffin sections of 4T1 tumors were probed for microvascular density (MVD), tumor cell proliferation and apoptosis through IF using anti-CD31, anti-PCNA and TUNEL staining respectively. (f) Quantification of MVD, cell proliferation and apoptosis. Plots represent the mean of 3 fields per section, 3 sections per tumor and 2 tumors per group. **P<0.01. Error bars denote SEM. […] Double immunofluorescence staining using anti-CD31 (red) and TUNEL (green) is shown. Nuclei were counter stained by DAPI (blue). Representative photos are shown. Apoptotic EC is indicated by white arrow.

B16 melanoma = assay: Pre-established subcutaneous B16 melanoma growth in mice, intravenous treatment; assay type: in vivo, mouse
Procedure: X-axis represents the days after inoculation of 5×10^5 tumor cells. Groups consisted of mice receiving cRAA and cRKD given in six doses of 250 μg through tail vein injection on days 8, 9, 10, 11, 12 and 13 (5 mice in each group, each mice with one tumor). (b) Tumor weight at the end of the experiment (day 14). (c) Dissected tumors at the end of experiment. […] Paraffin sections of B16 tumors were probed for microvascular density (MVD), tumor cell proliferation and apoptosis through immunofluoresence staining using anti-CD31, anti-PCNA and TUNEL staining respectively. (f) Quantification of MVD, cell proliferation and apoptosis. Plots represent the mean of 3 fields per section, 3 sections per tumor and 2 tumors per group. **P<0.01. Error bars denote SEM.

[1] = anti-CD31, anti-PCNA and TUNEL staining

Question: How did the “induction of EC apoptosis (pro-apoptotic activity)” value (endothelial cells (ECs)) turn out when N=C(N)NCCC[C@@H]1NC(=O)[C@@H](N)CSSC[C@@H](C(=O)O)NC(=O)[C@H](CC(=O)O)NC(=O)[C@H](CCCCN)NC1=O [cRKD, Cyclic CRKDC peptide] (H-CRKDC-OH; disulfide 1-5; N-terminus and C-terminus assumed) was run?
Answer: potently induced apoptosis

Question: And the “induction of EC apoptosis (pro-apoptotic activity)” value (endothelial cells (ECs); listed as RKD)?
Answer: equally potent comparing to “RKLYD”

Question: And the “anti-angiogenic activity at 1 μM” value (HUVECs; 1 μM peptide)?
Answer: inhibited angiogenesis with similar potency

Question: And the “inhibition of EC tube-like structure formation on Matrigel” value (HUVECs; dose-dependence)?
Answer: does-dependently inhibited EC tube-like structure formation

Question: And the “EC attachment and adhesion” value (ECs)?
Answer: mediated EC attachment and adhesion

Question: What about the Kd (GRP78) of the same molecule?
Answer: 9.6 nM

Question: And the 4T1 tumor growth (4T1 breast carcinoma; 250 μg tail vein every other day, day 0 to 22, vs cRAA)?
Answer: suppressed subcutaneous 4T1 breast cancer growth

Question: What about the “apoptosis of cancer cells and cancer ECs in 4T1 breast carcinoma” value (4T1 breast carcinoma; CD31/TUNEL double staining) of the same molecule?
Answer: induces apoptosis of both cancer cells and cancer ECs

Question: What about the “tumor angiogenesis, proliferation and apoptosis in 4T1 tumor” value (4T1 breast carcinoma; [1]) of the same molecule?
Answer: suppressed tumor angiogenesis, proliferation and induced apoptosis

Question: What about the “vascularization of 4T1 tumors” value (4T1 breast carcinoma; compared to control) of the same molecule?
Answer: reduced vascularization

Question: What about the “suppression of breast cancer growth” value (4T1 breast carcinoma; intravenous injection) of the same molecule?
Answer: 75%

Question: And the “tumor angiogenesis, proliferation and apoptosis in pre-established B16 tumor” value (B16 melanoma; [1])?
Answer: suppressed tumor angiogenesis, proliferation and induced apoptosis

Question: What about the “vascularization of pre-established B16 tumors” value (B16 melanoma; compared to control) of the same molecule?
Answer: reduced vascularization

Question: And the “pre-established B16 tumor growth” value (B16 melanoma; six doses of 250 μg tail vein on days 8-13)?
Answer: inhibits pre-established subcutaneous B16 melanoma growth
